# Measurements taken from PubChem BioAssay (NCI).
#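 The compound was tested at five concentrations on cells cultured in 96-well plates, with a 48-hour exposure period. Here, GI50 denotes the concentration required for 50% inhibition of growth. TGI is the concentration that stops growth completely.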
# Experiments:
# Assay in all cases: DTP human tumour cell line panel, 48 h
# [1] = test system: CCRF-CEM leukemia
# [2] = test system: HCC-2998 colon
# [3] = test system: MALME-3M melanoma
# [4] = test system: MCF7 breast
# [5] = test system: NCI-H226 lung
# [6] = test system: SF-539 CNS
# [7] = test system: SK-OV-3 ovarian
# [8] = test system: SNB-75 CNS
# [9] = test system: UACC-257 melanoma
# [10] = test system: MDA-MB-435
SMILES,GI50 [1] [µM],TGI [1] [µM],GI50 [2] [µM],TGI [2] [µM],GI50 [3] [µM],TGI [3] [µM],GI50 [4] [µM],TGI [4] [µM],GI50 [5] [µM],TGI [5] [µM],GI50 [6] [µM],TGI [6] [µM],GI50 [7] [µM],TGI [7] [µM],GI50 [8] [µM],TGI [8] [µM],TGI [9] [µM],GI50 [10] [µM],TGI [10] [µM],GI50 [9] [µM]
COC(=O)/C=C/c1cc(OC)c2c(c1)[C@@H](C(=O)OC)[C@H](c1ccc(OC)c(OC)c1)O2,0.983,> 100,3.35,> 100,> 100,> 100,0.388,14.2,38.4,> 100,1.22,> 100,6.13,> 100,0.432,> 100,> 100,–,–,–
C/C(=N\O)c1ccc(Nc2cc(-c3ccccc3)nc3c(O)cccc23)cc1,3.51,14.8,10.6,23.4,16.1,30.3,–,–,14.7,31.8,15.3,29.6,27.4,56.1,16.3,31.8,24.4,6.72,26.6,11.7
COc1ccc2nc3c(cc2c1)C(=O)CC(C(F)(F)F)C3 (stereo unspecified),0.223,> 100,4.14,99.1,2.57,> 100,3.33,> 100,3.28,> 100,1.74,5.64,4.23,> 100,1.04,> 100,> 100,–,–,> 96.2
COc1ccc(/C=N/C2=C(C#N)C(c3ccccc3)c3ccc4ccccc4c3O2)cc1 (stereo unspecified),0.377,> 100,0.92,> 42,–,> 100,0.425,> 100,2.08,> 100,0.244,1.05,0.539,> 100,–,–,> 100,0.0962,0.353,> 84.5
OC(c1cc2c(Cl)cc(Cl)cc2c2cc(C(F)(F)F)ccc12)C1CCCCN1 (stereo unspecified),–,–,1.64,3.24,1.85,3.91,–,–,1.73,3.56,–,–,1.67,3.26,1.79,3.36,3.7,2.14,4.75,1.92
CC(=O)NC1C(OCc2ccccc2)OC(COC(=O)CCCCCCCCCCNC(=O)CCNc2ccc([N+](=O)[O-])c3[nH]c4ccc(O)cc4c(=O)c23)C(O)C1OC(C)C(=O)N[C@H](C(=O)N[C@H](CCC(=O)O)C(N)=O)C(C)C (stereo partly specified),–,82.5,–,> 100,–,> 100,–,–,–,> 100,–,> 100,–,> 100,–,64.8,> 100,–,–,–
CCn1cc(C(=O)O)c(=O)c2cc(F)c(N3CCNCC3)nc21,–,> 100,–,> 100,–,> 100,–,–,–,> 100,–,> 100,–,> 100,–,> 100,> 100,–,–,–
O=C(c1ccccc1)C(c1ccccc1)C1(O)C(=O)Nc2ccc(Br)cc21 (stereo unspecified),–,47.7,–,> 100,–,> 100,–,–,–,> 100,–,> 100,–,> 100,–,> 100,53.8,–,–,–
Nc1c(C(=O)Nc2cccc3ccccc23)sc2nc3c(cc12)CCCCCC3,1.65,> 50,2.64,> 50,> 50,> 50,0.302,> 50,5.5,> 50,1.24,> 50,1.95,> 50,1.24,> 50,> 50,–,–,> 50
Nc1c(-c2ccc(-c3c(N)[n+]([O-])c4ccccc4[n+]3[O-])cc2)[n+]([O-])c2ccccc2[n+]1[O-],–,> 100,–,29.6,–,8.57,–,–,–,45,–,18.2,–,52.7,–,21.9,13.8,–,–,–
O=C1OC(/C=C/c2ccccc2)C(=O)C1=O (stereo unspecified),–,> 100,–,> 100,–,> 100,–,–,–,> 100,–,> 100,–,> 100,–,> 100,> 100,–,–,–
COc1cc2c(cc1OC)-c1c(c3ccc([N+](=O)[O-])cc3c(=O)n1CCCBr)C2=O,0.425,67.7,59.7,> 100,9.72,81.1,0.0985,> 100,22.7,85.1,10.4,> 100,60.5,> 100,–,–,> 100,25.4,> 100,37.2
Fc1cccc(C2SCc3nc4ccccc4n32)c1 (stereo unspecified),–,> 100,–,> 100,–,> 100,–,–,–,> 100,–,> 100,–,> 100,–,> 100,69.1,–,–,–
CC1(C)OC(=O)C(c2ccsc2)C(=O)O1,–,> 100,–,> 100,–,> 100,–,–,–,> 100,–,> 100,–,> 100,–,> 100,> 100,–,–,–
